In assay [1] the target is FGFR1 (Homo sapiens, UniProt P11362). The experiment in a line: radiometric kinase panel (Millipore), single concentration […]. It counts as biochemical. The settings on record: read-out: Inhibition rate at 1 μM (%).
The target in assay [2] is T1, FGFR2 (Homo sapiens, UniProt P21802).
T1 construct: kinase domains of FGFR2
Description: in vitro FGFR2 kinase assay (CycLex kit / Z'-lyte FRET), dose response; radiometric panel […] at […]. It counts as biochemical.

T1 sequence (P21802 458-768 limits assumed): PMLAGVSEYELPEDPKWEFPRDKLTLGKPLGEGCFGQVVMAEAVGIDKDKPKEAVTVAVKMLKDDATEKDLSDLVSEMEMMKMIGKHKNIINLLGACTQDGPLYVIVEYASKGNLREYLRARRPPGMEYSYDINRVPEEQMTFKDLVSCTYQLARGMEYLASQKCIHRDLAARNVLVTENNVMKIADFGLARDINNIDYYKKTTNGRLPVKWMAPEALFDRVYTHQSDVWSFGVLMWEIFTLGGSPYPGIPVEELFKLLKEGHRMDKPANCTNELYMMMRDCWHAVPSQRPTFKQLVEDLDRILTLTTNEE
Chain of FGFR1 (P11362 22-822): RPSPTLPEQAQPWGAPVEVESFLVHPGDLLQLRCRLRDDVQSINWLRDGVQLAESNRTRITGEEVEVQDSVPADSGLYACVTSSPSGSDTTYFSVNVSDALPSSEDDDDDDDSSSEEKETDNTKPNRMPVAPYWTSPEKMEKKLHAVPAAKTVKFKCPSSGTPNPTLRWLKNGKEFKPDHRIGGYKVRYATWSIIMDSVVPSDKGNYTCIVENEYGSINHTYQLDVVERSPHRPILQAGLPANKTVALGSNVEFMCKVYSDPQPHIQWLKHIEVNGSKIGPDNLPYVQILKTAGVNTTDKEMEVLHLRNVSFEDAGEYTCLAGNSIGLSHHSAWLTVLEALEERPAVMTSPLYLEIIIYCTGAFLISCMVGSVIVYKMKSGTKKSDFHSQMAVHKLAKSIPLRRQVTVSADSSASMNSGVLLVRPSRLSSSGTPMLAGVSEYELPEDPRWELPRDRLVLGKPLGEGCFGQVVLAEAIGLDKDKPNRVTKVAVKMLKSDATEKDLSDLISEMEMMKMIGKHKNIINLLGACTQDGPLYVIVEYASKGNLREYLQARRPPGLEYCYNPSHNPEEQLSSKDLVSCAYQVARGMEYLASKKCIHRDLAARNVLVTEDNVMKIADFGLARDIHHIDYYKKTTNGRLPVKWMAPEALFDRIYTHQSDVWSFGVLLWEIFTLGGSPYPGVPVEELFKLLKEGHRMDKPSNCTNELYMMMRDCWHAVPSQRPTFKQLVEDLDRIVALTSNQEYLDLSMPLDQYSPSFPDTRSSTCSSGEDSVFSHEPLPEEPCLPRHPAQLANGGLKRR

By inhibition is commonly meant the change of the read-out against control, counted positive when it falls. As a reminder, the IC50 is the point on the concentration scale where inhibition reaches its midpoint. On to `COc1ccc(-c2coc3cc(O)ccc3c2=O)cc1` [formononetin], for which the inhibition at 1 µM in assay [1] was 57 ± 4%. The same compound displayed an IC50 in assay [2] of around 4.31 µM.
